According to ChEMBL document CHEMBL4715864, “Discovery of 2-(5-(quinolin-6-yl)-1,3,4-oxadiazol-2-yl)acetamide derivatives as novel PI3Kα inhibitors via docking-based virtual screening” (Bioorg Med Chem, 2021):

target: Phosphatidylinositol 4,5-bisphosphate 3-kinase catalytic subunit gamma isoform (Homo sapiens, UniProt P48736); test: Inhibition of PI3Kgamma (unknown origin) using PIP2 as substrate measured after 1 hr by ADP-glo plus luminescence assay
Sequence (P48736 whole entry, canonical isoform): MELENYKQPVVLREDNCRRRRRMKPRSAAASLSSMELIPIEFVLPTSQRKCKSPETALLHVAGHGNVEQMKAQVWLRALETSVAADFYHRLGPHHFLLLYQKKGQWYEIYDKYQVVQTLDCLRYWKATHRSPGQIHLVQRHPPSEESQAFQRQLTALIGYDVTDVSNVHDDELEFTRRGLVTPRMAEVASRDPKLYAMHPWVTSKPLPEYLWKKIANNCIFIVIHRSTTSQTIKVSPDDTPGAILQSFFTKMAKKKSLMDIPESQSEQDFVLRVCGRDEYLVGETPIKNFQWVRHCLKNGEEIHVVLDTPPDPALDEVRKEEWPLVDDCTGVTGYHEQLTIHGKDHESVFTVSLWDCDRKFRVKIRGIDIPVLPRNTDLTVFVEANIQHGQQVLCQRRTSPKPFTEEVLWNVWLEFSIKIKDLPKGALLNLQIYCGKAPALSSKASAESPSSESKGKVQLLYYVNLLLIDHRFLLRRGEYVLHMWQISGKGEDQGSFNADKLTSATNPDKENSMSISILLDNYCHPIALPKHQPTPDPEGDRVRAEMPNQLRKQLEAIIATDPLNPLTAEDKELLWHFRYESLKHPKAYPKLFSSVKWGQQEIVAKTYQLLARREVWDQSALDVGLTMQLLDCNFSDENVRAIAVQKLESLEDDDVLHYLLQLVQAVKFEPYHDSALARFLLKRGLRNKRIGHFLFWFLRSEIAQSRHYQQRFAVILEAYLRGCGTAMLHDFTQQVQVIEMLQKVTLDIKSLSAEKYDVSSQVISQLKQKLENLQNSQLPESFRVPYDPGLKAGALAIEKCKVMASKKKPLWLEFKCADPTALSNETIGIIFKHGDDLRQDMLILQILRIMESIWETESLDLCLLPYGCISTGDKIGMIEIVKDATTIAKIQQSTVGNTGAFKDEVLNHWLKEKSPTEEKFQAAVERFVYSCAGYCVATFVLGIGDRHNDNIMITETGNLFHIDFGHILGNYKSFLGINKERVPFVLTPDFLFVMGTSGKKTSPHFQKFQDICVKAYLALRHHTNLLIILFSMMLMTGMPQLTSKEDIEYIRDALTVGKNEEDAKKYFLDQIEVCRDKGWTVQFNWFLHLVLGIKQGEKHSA

IC50 [µM] | SMILES
152 | COc1ccc(CNC(=O)Cc2nnc(-c3ccc4ncccc4c3)o2)cc1OC
9.8 | O=C(Cc1nnc(-c2ccc3ncccc3c2)o1)NCCc1ccc(Cl)cc1

organism: Homo sapiens; test: Selectivity ratio of IC50 for PI3Kgamma (unknown origin) to IC50 for PI3Kalpha (unknown origin)

Ratio IC50 | SMILES
20 | COc1ccc(CNC(=O)Cc2nnc(-c3ccc4ncccc4c3)o2)cc1OC

target: T1, Phosphatidylinositol 4,5-bisphosphate 3-kinase catalytic subunit delta isoform (Homo sapiens, UniProt O00329); test: Inhibition of PI3Kdelta (unknown origin) using PIP2 as substrate measured after 1 hr by ADP-glo plus luminescence assay
T1 sequence (O00329 whole entry): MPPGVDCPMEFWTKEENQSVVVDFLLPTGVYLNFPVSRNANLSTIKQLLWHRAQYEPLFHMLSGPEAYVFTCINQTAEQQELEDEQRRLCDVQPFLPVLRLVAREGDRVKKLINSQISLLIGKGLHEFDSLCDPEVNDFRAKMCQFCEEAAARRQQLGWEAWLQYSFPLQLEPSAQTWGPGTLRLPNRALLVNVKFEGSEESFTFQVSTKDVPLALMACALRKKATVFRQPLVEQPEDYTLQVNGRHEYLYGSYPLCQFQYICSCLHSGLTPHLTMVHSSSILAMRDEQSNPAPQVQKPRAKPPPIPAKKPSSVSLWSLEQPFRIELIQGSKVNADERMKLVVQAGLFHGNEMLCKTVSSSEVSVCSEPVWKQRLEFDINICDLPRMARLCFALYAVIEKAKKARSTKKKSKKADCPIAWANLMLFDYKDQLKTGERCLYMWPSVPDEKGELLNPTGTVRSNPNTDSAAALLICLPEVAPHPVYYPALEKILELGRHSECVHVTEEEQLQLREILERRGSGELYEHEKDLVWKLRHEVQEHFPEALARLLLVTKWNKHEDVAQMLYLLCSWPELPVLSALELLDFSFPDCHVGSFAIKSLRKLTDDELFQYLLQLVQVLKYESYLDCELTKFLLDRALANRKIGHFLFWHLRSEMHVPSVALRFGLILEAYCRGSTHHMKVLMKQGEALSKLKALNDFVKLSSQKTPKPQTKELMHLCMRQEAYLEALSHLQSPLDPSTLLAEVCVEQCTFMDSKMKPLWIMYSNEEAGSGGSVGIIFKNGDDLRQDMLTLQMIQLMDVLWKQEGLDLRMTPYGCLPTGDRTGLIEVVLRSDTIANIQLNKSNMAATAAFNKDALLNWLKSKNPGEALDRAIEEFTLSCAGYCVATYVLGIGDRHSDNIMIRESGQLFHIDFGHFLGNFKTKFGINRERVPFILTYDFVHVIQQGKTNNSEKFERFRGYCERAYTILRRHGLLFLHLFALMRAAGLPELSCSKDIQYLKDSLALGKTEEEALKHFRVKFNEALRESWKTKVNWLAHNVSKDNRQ

IC50 [µM] | SMILES
14.2 | COc1ccc(CNC(=O)Cc2nnc(-c3ccc4ncccc4c3)o2)cc1OC
16.6 | O=C(Cc1nnc(-c2ccc3ncccc3c2)o1)NCCc1ccc(Cl)cc1

target: Phosphatidylinositol 4,5-bisphosphate 3-kinase catalytic subunit beta isoform (Homo sapiens, UniProt P42338); test: Inhibition of PI3Kbeta (unknown origin) using PIP2 as substrate measured after 1 hr by ADP-glo plus luminescence assay
Sequence (P42338 whole entry, canonical isoform): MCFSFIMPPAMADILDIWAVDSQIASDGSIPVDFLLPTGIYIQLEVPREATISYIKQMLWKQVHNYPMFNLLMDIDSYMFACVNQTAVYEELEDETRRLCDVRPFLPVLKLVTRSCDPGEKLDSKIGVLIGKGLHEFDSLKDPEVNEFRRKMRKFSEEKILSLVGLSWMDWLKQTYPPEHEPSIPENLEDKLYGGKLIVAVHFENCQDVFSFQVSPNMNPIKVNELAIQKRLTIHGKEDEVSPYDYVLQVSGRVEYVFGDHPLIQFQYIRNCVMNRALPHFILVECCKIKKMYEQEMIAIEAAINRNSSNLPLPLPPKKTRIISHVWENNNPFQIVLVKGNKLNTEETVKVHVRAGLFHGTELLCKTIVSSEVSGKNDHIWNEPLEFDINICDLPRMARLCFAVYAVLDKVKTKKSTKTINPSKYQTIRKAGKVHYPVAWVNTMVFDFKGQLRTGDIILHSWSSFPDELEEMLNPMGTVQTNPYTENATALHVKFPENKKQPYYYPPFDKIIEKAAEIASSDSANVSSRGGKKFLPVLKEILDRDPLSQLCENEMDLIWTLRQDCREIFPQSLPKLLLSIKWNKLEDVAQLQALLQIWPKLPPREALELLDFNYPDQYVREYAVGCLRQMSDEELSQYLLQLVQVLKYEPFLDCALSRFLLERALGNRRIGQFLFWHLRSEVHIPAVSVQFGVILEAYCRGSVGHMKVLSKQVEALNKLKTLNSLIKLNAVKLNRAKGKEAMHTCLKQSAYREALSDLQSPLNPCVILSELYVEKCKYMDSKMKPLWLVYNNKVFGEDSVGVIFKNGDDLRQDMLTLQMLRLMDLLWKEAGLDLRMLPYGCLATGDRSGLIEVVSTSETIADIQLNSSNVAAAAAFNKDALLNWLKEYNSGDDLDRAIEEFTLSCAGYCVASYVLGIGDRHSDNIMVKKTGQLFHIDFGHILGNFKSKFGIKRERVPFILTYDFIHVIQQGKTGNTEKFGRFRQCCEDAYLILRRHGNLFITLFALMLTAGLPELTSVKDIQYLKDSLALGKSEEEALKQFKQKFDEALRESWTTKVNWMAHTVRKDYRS

IC50 [µM] | SMILES
4.1 | COc1ccc(CNC(=O)Cc2nnc(-c3ccc4ncccc4c3)o2)cc1OC
2.6 | O=C(Cc1nnc(-c2ccc3ncccc3c2)o1)NCCc1ccc(Cl)cc1

target: T2, Phosphatidylinositol 4,5-bisphosphate 3-kinase catalytic subunit alpha isoform (Homo sapiens, UniProt P42336); test: Inhibition of PI3Kalpha (unknown origin) assessed as inhibition rate using PIP2 as substrate at 10 uM measured after 1 hr by ADP-glo plus luminescence assay
T2 sequence (P42336 whole entry, canonical isoform): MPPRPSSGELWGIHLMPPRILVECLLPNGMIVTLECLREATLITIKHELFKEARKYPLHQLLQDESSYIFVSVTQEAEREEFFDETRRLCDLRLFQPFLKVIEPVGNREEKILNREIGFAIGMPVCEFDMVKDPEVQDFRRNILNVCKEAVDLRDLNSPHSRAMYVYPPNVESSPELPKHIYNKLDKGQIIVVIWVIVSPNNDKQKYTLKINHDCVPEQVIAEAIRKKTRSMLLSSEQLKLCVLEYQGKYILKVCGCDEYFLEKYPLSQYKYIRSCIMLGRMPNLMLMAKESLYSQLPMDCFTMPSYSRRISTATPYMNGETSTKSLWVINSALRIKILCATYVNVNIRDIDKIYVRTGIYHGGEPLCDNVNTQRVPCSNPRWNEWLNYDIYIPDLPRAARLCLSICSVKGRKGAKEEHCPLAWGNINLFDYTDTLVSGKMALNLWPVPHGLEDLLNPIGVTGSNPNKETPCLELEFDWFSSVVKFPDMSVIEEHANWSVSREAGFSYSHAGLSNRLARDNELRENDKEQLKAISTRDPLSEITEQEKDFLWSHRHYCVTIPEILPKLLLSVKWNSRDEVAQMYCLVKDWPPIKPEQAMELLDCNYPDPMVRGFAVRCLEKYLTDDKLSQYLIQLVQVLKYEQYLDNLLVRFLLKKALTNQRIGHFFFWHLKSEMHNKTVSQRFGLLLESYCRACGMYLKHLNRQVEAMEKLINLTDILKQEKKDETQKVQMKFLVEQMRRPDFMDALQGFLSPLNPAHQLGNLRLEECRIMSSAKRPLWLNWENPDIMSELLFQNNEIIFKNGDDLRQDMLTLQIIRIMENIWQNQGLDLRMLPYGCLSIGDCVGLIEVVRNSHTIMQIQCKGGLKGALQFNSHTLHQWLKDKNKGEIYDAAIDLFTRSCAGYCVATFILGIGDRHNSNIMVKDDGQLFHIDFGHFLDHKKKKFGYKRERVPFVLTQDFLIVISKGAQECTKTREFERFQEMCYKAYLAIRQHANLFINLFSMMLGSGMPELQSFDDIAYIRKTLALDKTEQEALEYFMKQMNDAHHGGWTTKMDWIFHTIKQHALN

inhibition [%] | SMILES
73.8 | O=C(Cc1nnc(-c2ccc3ncccc3c2)o1)NCCc1ccccc1
55.5 | O=C(Cc1nnc(-c2ccc3ncccc3c2)o1)NCc1ccc(F)cc1Cl
71.9 | CC(C)NC(=O)CSc1nc(-c2ccc3c(c2)OCO3)nc2cc(=O)[nH]n12

target: T2, Phosphatidylinositol 4,5-bisphosphate 3-kinase catalytic subunit alpha isoform; test: Inhibition of PI3Kalpha (unknown origin) using PIP2 as substrate measured after 1 hr by ADP-glo plus luminescence assay

IC50 [µM] | SMILES
> 200 | O=C(Cc1nnc(-c2ccc3ncccc3c2)o1)Nc1ccc(OC(F)(F)F)cc1
> 200 | COc1ccc(NC(=O)Cc2nnc(-c3ccc4ncccc4c3)o2)cc1OC
> 200 | O=C(Cc1nnc(-c2ccccn2)o1)NCc1ccc(F)cc1Cl
29.2 | O=C(Cc1nnc(-c2ccc3ncccc3c2)o1)NCCc1ccccc1
> 200 | O=C(Cc1nnc(-c2ccc3ncccc3c2)o1)N1CCN(c2ccccc2)CC1
15.6 | O=C(Cc1nnc(-c2ccc3ncccc3c2)o1)NCc1ccc(F)cc1Cl
17 | CC(C)NC(=O)CSc1nc(-c2ccc3c(c2)OCO3)nc2cc(=O)[nH]n12
7.6 | COc1ccc(CNC(=O)Cc2nnc(-c3ccc4ncccc4c3)o2)cc1OC
> 200 | O=C(Cc1nnc(-c2ccc3c(c2)OCO3)o1)NCc1ccc(F)cc1
6.6 | O=C(Cc1nnc(-c2ccc3ncccc3c2)o1)NCCc1ccc(Cl)cc1
> 200 | O=C(Cc1nnc(-c2ccc3ncccc3c2)o1)Nc1cccc(C(F)(F)F)c1
18.3 | COc1ccccc1CNC(=O)Cc1nnc(-c2ccc3ncccc3c2)o1
> 200 | N#Cc1cc(NC(=O)Cc2nnc(-c3ccc4ncccc4c3)o2)ccc1F
